We go through seven molecules from patent publication US10800741B2 (ANCUREALL PHARMACEUTICAL (SHANGHAI) CO., LTD., priority 2017, dated 2020).

Experiment [1] relates to Karpas 299 (NPM-ALK). In words: In vitro growth inhibition of Karpas 299 tumor cells (MTT/CCK8). Type of experiment: cell-based, Human. The conditions noted are these: Homo sapiens, KARPAS-299; in vitro growth inhibition (or induction of apoptosis), cells cultured 3 to 5 days, MTT (CCK8); read-out: IC50 Karpas 299 (NPM-ALK).
Experiment [2] has as its system KATO III (FGFR2 amp). In words: In vitro growth inhibition of KATO III tumor cells (MTT/CCK8). As to conditions: Homo sapiens, KATO III; in vitro growth inhibition (or induction of apoptosis), cells cultured 3 to 5 days, MTT (CCK8); read-out: IC50 KATO III (FGFR2 amp). It is filed as cell-based, Human.
Experiment [3] relates to JHH-7. The experiment can be described thus: In vitro growth inhibition of JHH-7 cells. Type of experiment: cell-based. As to conditions: Homo sapiens, JHH7, FGFR3+++, FGFR4 +++. How it is done:
(§1) Adherent cells were digested with 0.25% trypsin-EDTA (Gibco). Suspension culture cells were collected by centrifugation (1700 rpm, 3 minutes). The supernatant was discarded and the cells were counted. According to each cell growth cycle, different concentrations of cells were prepared (5˜10×10^4 cells per ml), and inoculated to 96-well plates (Corning), with 100 μl per well, and incubated overnight at 37° C., 5% CO2. The next day, the test compound was added to the cultured cells (2 wells in parallel). The final concentration of the solvent was less than 1/1,000. The cells were further cultured for 3 to 5 days and assayed by MTT.
(§2) The MTT test reagent was a Dojindo CCK8 kit and the Microplate Reader was a THERMO […] FC instrument.
(§3) The adherent cells were taken out from the cell culture medium, and immediately added to a freshly prepared complete medium containing 10% CCK8 (5% FBS), 100 ul per hole. The suspended cells were directly added to a CCK8 reagent until reaching a final concentration of 10% and cultured for 1 to 4 hours. When a dark yellow color could be observed in the solvent control wells, the absorbance value at OD450 nm was measured and the cell growth rate was calculated according to the following formula: Cell Growth Rate (%)=100×(T−T0)/(C−T0)
(§4) T=optical density of drug-treated cell wells−optical density of blank control wells; T0=optical density of cell wells before drug treatment−optical density of blank control wells; C=optical density of solvent control wells−optical density of blank control wells. […] The experiments were repeated 1 to 3 times and a statistical analysis of data was conducted.
(§5) Mutations in the FGFR1-4 gene often occur in different types of cancer patients. In order to test the growth inhibition activity of the present compound against tumor cells expressing different FGFR variants, tumor cell lines expressing representative FGFR1-4 were selected for further determining the activity of compounds 25, 66, 38 and 95 of the present invention. BGJ398, a selective inhibitor of FGFR1-4, was used as the control compound. The specific test method is the same as test example 1.

The test system of experiment [4] is H1703 (PDGFRa amp). The experiment can be described thus: In vitro growth inhibition of H1703 tumor cells (MTT/CCK8). It is filed as cell-based, Human. As to conditions: Homo sapiens, NCI-H1703; in vitro growth inhibition (or induction of apoptosis), cells cultured 3 to 5 days, MTT (CCK8); read-out: IC50 H1703 (PDGFRa amp).
The test system of experiment [5] is RT112/84. In words: In vitro growth inhibition of RT112/84 cells. It is filed as cell-based. The conditions noted are these: Homo sapiens, FGFR3-TACC3. As for the experimental part: as §1, §2, §3, §4, §5
The test system of experiment [6] is AN3-CA. In words: In vitro growth inhibition of AN3-CA cells. It is filed as cell-based. The conditions noted are these: Homo sapiens, FGFR2 mutant. How it is done: as §1, §2, §3, §4, §5
Experiment [7] deals with Cal-120. The experiment can be described thus: In vitro growth inhibition of Cal-120 cells. Type of experiment: cell-based. The conditions noted are these: Homo sapiens, FGFR1 amp. How it is done: as §1, §2, §3, §4, §5
Experiment [8] deals with Huh-7. The experiment can be described thus: In vitro growth inhibition of Huh-7 cells. Type of experiment: cell-based. As to conditions: Homo sapiens, FGFR3+++, FGFR4 +++. As for the experimental part:
as §1, §2, §3, §4, §5

The subject of experiment [9] is Kasumi-1 (KIT N822K). The experiment can be described thus: In vitro growth inhibition of Kasumi-1 tumor cells (MTT/CCK8). It is filed as cell-based, Human. As to conditions: Homo sapiens, Kasumi 1; in vitro growth inhibition (or induction of apoptosis), cells cultured 3 to 5 days, MTT (CCK8); read-out: IC50 Kasumi-1 (KIT N822K).
Experiment [10] concerns MDA-MB-453. The experiment can be described thus: In vitro growth inhibition of MDA-MB-453 cells. It is filed as cell-based. The conditions noted are these: Homo sapiens, PI3KCA H1047R, FGFR4+++/Y367C. As for the experimental part:
as §1, §2, §3, §4, §5

Experiment [11] relates to JIMT-1. In words: In vitro growth inhibition of JIMT-1 cells. The conditions noted are these: Homo sapiens, FGFR1 amp, HER2 amp, PI3KCA C420R. It is filed as cell-based. How it is done:
as §1, §2, §3, §4, §5

The subject of experiment [12] is DMS114. In words: In vitro growth inhibition of DMS114 cells. As to conditions: Homo sapiens, DMS-114, FGFR1 amp. It is filed as cell-based. How it is done:
as §1, §2, §3, §4, §5

In experiment [13] the test system is Hep3B2 (FGFR3/4+++). In words: In vitro growth inhibition of Hep3B2 tumor cells (MTT/CCK8). It is filed as cell-based, Human. As to conditions: Homo sapiens, Hep3B; in vitro growth inhibition (or induction of apoptosis), cells cultured 3 to 5 days, MTT (CCK8); read-out: IC50 Hep3B2 (FGFR3/4+++).
Experiment [14] has as its system A375. In words: In vitro growth inhibition of A375 cells. It is filed as cell-based. As to conditions: Homo sapiens, A-375, BRAF V600E, FGFR2 mutant. As for the experimental part: as §1, §2, §3, §4, §5
Experiment [15] deals with MFM-223. In words: In vitro growth inhibition of MFM-223 cells. Type of experiment: cell-based. As to conditions: Homo sapiens, PI3KCA H1047R, FGFR1 amp, FGFR2 amp. As for the experimental part: as §1, §2, §3, §4, §5
For experiment [16], the system named is H1581 (FGFR1 amp). In words: In vitro growth inhibition of H1581 tumor cells (MTT/CCK8). It is filed as cell-based, Human. The conditions noted are these: Homo sapiens, NCI-H1581; in vitro growth inhibition (or induction of apoptosis), cells cultured 3 to 5 days, MTT (CCK8); read-out: IC50 H1581 (FGFR1 amp).
Experiment [17] has as its system SNU-16. In words: In vitro growth inhibition of SNU-16 cells. Type of experiment: cell-based. As to conditions: Homo sapiens, FGFR2 amp. How it is done: as §1, §2, §3, §4, §5
The test system of experiment [18] is KCL-22 (BCR-ABL). The experiment can be described thus: In vitro growth inhibition of KCL-22 tumor cells (MTT/CCK8). Type of experiment: cell-based, Human. As to conditions: Homo sapiens, KCL-22; in vitro growth inhibition (or induction of apoptosis), cells cultured 3 to 5 days, MTT (CCK8); read-out: IC50 KCL-22 (BCR-ABL).
Experiment [19] deals with RS4:11. The experiment can be described thus: In vitro growth inhibition of FLT3 wild type overexpressing cells RS4:11. The conditions noted are these: Homo sapiens, cells over expressing FLT3 wild-type. Type of experiment: cell-based. As for the experimental part: as §1, §2, §3, §4
(§6) The present compounds which has a high growth inhibition activity on tumor cells positive expressing FLT3-ITD were selected for the determination of IC50 concentration on FLT3 wild tyoverexpressing cells RS4:11 and FLT3 wild-type normal expressing cells Jurkat. The specific test method is the same as that of test example 1.

For experiment [20], the system named is Jurkat. In words: In vitro growth inhibition of FLT3 wild-type normal expressing cells Jurkat. Type of experiment: cell-based. As to conditions: Homo sapiens, cells normally expressing FLT3 wild-type. How it is done:
as §1, §2, §3, §4, §6

The subject of experiment [21] is MOLM-13 (FLT3-ITD). The experiment can be described thus: In vitro growth inhibition of MOLM-13 tumor cells (MTT/CCK8). It is filed as cell-based, Human. The conditions noted are these: Homo sapiens, MOLM-13; in vitro growth inhibition (or induction of apoptosis), cells cultured 3 to 5 days, MTT (CCK8); read-out: IC50 MOLM-13 (FLT3-ITD).
Experiment [22] has as its system PLC/PRF/5. The experiment can be described thus: In vitro growth inhibition of PLC/PRF/5 cells. Type of experiment: cell-based. As to conditions: Homo sapiens, FGFR3+++, FGFR4 +++. As for the experimental part: as §1, §2, §3, §4, §5
Experiment [23] deals with Hep G2. In words: In vitro growth inhibition of Hep G2 cells. It is filed as cell-based. The conditions noted are these: Homo sapiens, HepG2, FGFR3+++, FGFR4 +++. As for the experimental part:
as §1, §2, §3, §4, §5

pIC50: −log10 of the molar value. Some results are limits rather than exact numbers.

For `CCN1CCN(c2ccc(Nc3cc(N(C)C(=O)Nc4c(Cl)c(OC)cc(OC)c4Cl)ncn3)cc2)CC1` [BGJ398, reference compound], the pIC50 in experiment [1] was less than 6.00; in [2], 9.34; in [3] it was 7.50; in experiment [4] it was less than 6.00; in [5] it was 8.09; in experiment [6], 7.21. Also, the pIC50 in experiment [7] was less than 6.00; in [8] it was 7.51; in [9], less than 6.00; in experiment [10], less than 6.00; in experiment [11], less than 6.00; in experiment [12], 8.16. For the same molecule, the pIC50 was 7.41 in experiment [13]; less than 6.00 in [14]; less than 6.00 in experiment [15]; 8.16 in experiment [16]; 8.66 in experiment [17]; less than 6.00 in [18].
As for `COc1cc2nccc(Oc3ccc(NC(=O)Nc4cc(C(C)(C)C)on4)cn3)c2cc1C(N)=O` [Compound 24, 4-{5-[3-(5-tert-butyl-isoxazol-3-yl)-ureido]-pyridin-2-yloxy}-7-methoxyquinolin-6-carboxamide], the pIC50 was 6.12 in experiment [1]; 7.51 in [2]; 7.08 in experiment [4]; less than 6.00 in experiment [19]; 6.24 in [20]; less than 6.00 in experiment [9]. The pIC50 was 6.46 in experiment [13], 6.31 in [16], 9.00 in [21] and less than 6.00 in experiment [18].
In the case of `COc1cc2nccc(Oc3ccc(NC(=O)Nc4cc(C(C)(C)C)n[nH]4)c(Cl)c3)c2cc1C(N)=O` [Compound 25, 4-{4-[3-(5-tert-butyl-2H-pyrazol-3-yl)-ureido]-3-chloro-phenoxy}-7-methoxyquinolin-6-carboxamide], the pIC50 in experiment [1] was 6.22; in experiment [2], 9.62; in experiment [3], 8.31; in [4], 7.87; in experiment [5] it was 7.50; in experiment [22] it was 8.53. For the same molecule, the pIC50 is 8.31 in experiment [6]; 7.19 in experiment [7]; 8.15 in experiment [8]; 7.36 in experiment [9]; 6.51 in [10]; 6.33 in [11]. Besides, the pIC50 was 7.81 in experiment [12]; 6.90 in experiment [23]; 7.85 in [13]; 6.89 in [14]; 7.67 in [15]; 8.01 in experiment [16]. In addition, the pIC50 is 7.72 in experiment [21], 8.71 in experiment [17] and 7.79 in [18].
On to `COc1cc2nccc(Oc3ccc(NC(=O)Nc4cc(C(C)(C)C)n[nH]4)cc3C)c2cc1C(N)=O` [Compound 35, 4-{4-[3-(5-tert-butyl-2H-pyrazol-3-yl)-ureido]-2-methyl-phenoxy}-7-methoxyquinolin-6-carboxamide], for which the pIC50 in [1] was 6.41; in experiment [2], 8.35; in experiment [4] it was 6.97; in experiment [19] it was less than 6.00; in experiment [20], 6.37; in experiment [9], 8.14. Moreover, the pIC50 in experiment [13] was 6.78; in experiment [16] it was 6.98; in experiment [21], more than 10.30; in experiment [18], 7.77.
`COc1cc2nccc(Oc3ccc(NC(=O)Nc4cc(C(C)(C)C)n[nH]4)cc3Cl)c2cc1C(N)=O` [Compound 36, 4-{4-[3-(5-tert-butyl-2H-pyrazol-3-yl)-ureido]-2-chloro-phenoxy}-7-methoxyquinolin-6-carboxamide]: the pIC50 in experiment [1] is 6.75; in experiment [2], 8.58; in experiment [4], 6.64; in [19], 6.12; in experiment [20] it was 6.27; in [9], 7.15. Also, the pIC50 was 7.10 in experiment [13], 7.18 in [16], more than 10.30 in experiment [21] and 7.50 in [18].
`COc1cc2nccc(Oc3ccc(NC(=O)Nc4cc(C(C)(C)C)n[nH]4)c(Cl)c3Cl)c2cc1C(N)=O` [Compound 37, 4-{4-[3-(5-tert-butyl-2H-pyrazol-3-yl)-ureido]-2,3-dichloro-phenoxy}-7-methoxyquinolin-6-carboxamide]: the pIC50 in experiment [1] is 7.28; in experiment [2] it was 9.72; in [4], 8.19; in [19], 6.86; in [20], 6.39; in experiment [9], 8.69. Further, the pIC50 was 8.02 in [13], 8.33 in experiment [16], 9.01 in experiment [21] and 9.30 in [18].
As for `CNC(=O)c1cc2c(Oc3ccc(NC(=O)Nc4cc(C(C)(C)C)n[nH]4)cc3C)ccnc2cc1OC` [Compound 52, 4-{4-[3-(5-tert-butyl-2H-pyrazol-3-yl)-ureido]-2-methyl-phenoxy}-7-methoxyquinolin-6-carboxylate acid methylamide], the pIC50 in [1] was 6.69; in experiment [2] it was 8.48; in [4], 7.20; in experiment [19], less than 6.00; in experiment [20], less than 6.00; in experiment [9], 8.42. Moreover, the pIC50 in experiment [13] was 6.76; in experiment [16], 6.97; in [21], 10.22; in experiment [18] it was 8.15.
